The values below come from ChEMBL document CHEMBL5113485, “Distal kinetic deuterium isotope effect: Phenyl ring deuteration attenuates N-demethylation of Lu AF35700” (Bioorg Med Chem Lett, 2022).

As a reminder, the Ki is a measure of affinity in units of concentration, obtained from inhibition or displacement.

Data set [1] has as its target T1, Cytochrome P450 3A4 (Homo sapiens, UniProt P08684). Description: Drug metabolism assessed as recombinant human liver CYP3A4-mediated formation of desmethyl-zicronapine at 10 uM measured after 15 to 180 mins in presence of Lu AF35700 by LC-MS/MS analysis. The data set is classed as ADME. The following applies: recombinant enzyme, time 15-180 min.
The target in data set [2] is T2, Cytochrome P450 2C19 (Homo sapiens, UniProt P33261). The data set is described as follows: Drug metabolism assessed as recombinant human liver CYP2C19-mediated formation of desmethyl-zicronapine at 10 uM measured after 15 to 180 mins in presence of d5-zicronapine by LC-MS/MS analysis. The data set is classed as ADME. Conditions: recombinant enzyme, time 15-180 min.

Data set [3] deals with T1, Cytochrome P450 3A4. Description: Drug metabolism assessed as recombinant human liver CYP3A4-mediated formation of d5-desmethyl-zicronapine at 10 uM measured after 15 to 180 mins in presence of Lu AF35700 by LC-MS/MS analysis. The data set is classed as ADME. Conditions: recombinant enzyme, time 15-180 min.
The target in data set [4] is T1, Cytochrome P450 3A4. Description: Drug metabolism assessed as recombinant human liver CYP3A4-mediated formation of desmethyl-zicronapine at 10 uM measured after 15 to 180 mins in presence of d5-zicronapine by LC-MS/MS analysis. It counts as ADME. Conditions: recombinant enzyme, time 15-180 min.
Data set [5] addresses T2, Cytochrome P450 2C19. The data set is described as follows: Drug metabolism assessed as recombinant human liver CYP2C19-mediated formation of d5-desmethyl-zicronapine at 10 uM measured after 15 to 180 mins in presence of Lu AF35700 by LC-MS/MS analysis. It counts as ADME. The following applies: recombinant enzyme, time 15-180 min.
Data set [6] addresses T2, Cytochrome P450 2C19. Description: Drug metabolism assessed as recombinant human liver CYP2C19-mediated formation of desmethyl-zicronapine at 10 uM measured after 15 to 180 mins in presence of Lu AF35700 by LC-MS/MS analysis. The data set is classed as ADME. Conditions: recombinant enzyme, time 15-180 min.
Data set [7] addresses D(1A) dopamine receptor (Homo sapiens, UniProt P21728). The data set is described as follows: Displacement of [3H]SCH 23390 from recombinant human D1 receptor measured after 60 mins by scintillation counting analysis. Background: Displacement assays read how much labelled ligand stays bound in the presence of the test substance.
The target in data set [8] is D(3) dopamine receptor (Homo sapiens, UniProt P35462). Description: Displacement of [3H]methyl-spiperone from recombinant human D3 receptor measured after 60 mins by scintillation counting analysis.
The target of data set [9] is Sodium-dependent dopamine transporter (Homo sapiens, UniProt Q01959). The data set is described as follows: Displacement of [3H]BTCP from recombinant human DAT measured after 120 mins by scintillation counting analysis.
The target of data set [10] is Alpha-2C adrenergic receptor (Homo sapiens, UniProt P18825). Description: Displacement of [3H]RX 821002 from recombinant human alpha2C receptor measured after 60 mins by scintillation counting analysis.
Data set [11] deals with Alpha-1A adrenergic receptor (Homo sapiens, UniProt P35348). The data set is described as follows: Displacement of [3H]prazosin from recombinant human alpha1A receptor measured after 60 mins by scintillation counting analysis.
Data set [12] has as its target D(2) dopamine receptor (Homo sapiens, UniProt P14416). Description: Displacement of [3H]7-OH-DPAT from recombinant human D2S receptor measured after 60 mins by scintillation counting analysis.
The target of data set [13] is 5-hydroxytryptamine receptor 2A (Homo sapiens, UniProt P28223). The data set is described as follows: Displacement of [125I](+/-)DOI from recombinant human 5-HT2A receptor measured after 60 mins by scintillation counting analysis.
In data set [14] the target is Histamine H1 receptor (Homo sapiens, UniProt P35367). The data set is described as follows: Displacement of [3H]pyrilamine from recombinant human H1 receptor measured after 60 mins by scintillation counting analysis.
The target of data set [15] is 5-hydroxytryptamine receptor 2C (Homo sapiens, UniProt P28335). Description: Displacement of [125I](+/-)DOI from recombinant human 5-HT2C receptor measured after 60 mins by scintillation counting analysis.
Data set [16] concerns the target D(1B) dopamine receptor (Homo sapiens, UniProt P21918). The data set is described as follows: Displacement of [3H]SCH 23390 from recombinant human D5 receptor measured after 60 mins by scintillation counting analysis.
Data set [17] deals with Alpha-2B adrenergic receptor (Homo sapiens, UniProt P18089). Description: Displacement of [3H]RX 821002 from recombinant human alpha2B receptor measured after 60 mins by scintillation counting analysis.
The target of data set [18] is 5-hydroxytryptamine receptor 2B (Homo sapiens, UniProt P41595). Description: Displacement of [125I](+/-)DOI from recombinant human 5-HT2B receptor measured after 60 mins by scintillation counting analysis.
The target of data set [19] is 5-hydroxytryptamine receptor 1A (Homo sapiens, UniProt P08908). Description: Displacement of [3H]8-OH-DPAT from recombinant human 5-HT1A receptor measured after 60 mins by scintillation counting analysis.
Data set [20] concerns the target 5-hydroxytryptamine receptor 6 (Homo sapiens, UniProt P50406). The data set is described as follows: Displacement of [3H]LSD from recombinant human 5-HT6 receptor measured after 120 mins by scintillation counting analysis.
In data set [21] the target is D(4) dopamine receptor (Homo sapiens, UniProt P21917). Description: Displacement of [3H]methyl-spiperone from recombinant human D4.4 receptor measured after 60 mins by scintillation counting analysis.
Data set [22] deals with Alpha-2A adrenergic receptor (Homo sapiens, UniProt P08913). The data set is described as follows: Displacement of [3H]RX 821002 from recombinant human alpha2A receptor measured after 60 mins by scintillation counting analysis.
In data set [23] the target is 5-hydroxytryptamine receptor 1B (Rattus norvegicus, UniProt P28564). Description: Displacement of [125I]CYP from rat brain 5HT1B receptor measured after 120 mins by scintillation counting analysis.
The target in data set [24] is Alpha-1B adrenergic receptor (Homo sapiens, UniProt P35368). The data set is described as follows: Displacement of [3H]prazosin from recombinant human alpha1B receptor measured after 60 mins by scintillation counting analysis.
For data set [25], the target named is 5-hydroxytryptamine receptor 7 (Homo sapiens, UniProt P34969). The data set is described as follows: Displacement of [3H]LSD from recombinant human 5-HT7 receptor measured after 120 mins by scintillation counting analysis.
Data set [26] has as its target Alpha-1D adrenergic receptor (Homo sapiens, UniProt P25100). Description: Displacement of [3H]prazosin from recombinant human alpha1D receptor measured after 60 mins by scintillation counting analysis.
For data set [27], the target named is T1, Cytochrome P450 3A4. Description: Drug metabolism assessed as recombinant human liver CYP3A4-mediated formation of d5-desmethyl-zicronapine at 10 uM measured after 15 to 180 mins in presence of zicronapine by LC-MS/MS analysis. It counts as ADME. The following applies: recombinant enzyme, time 15-180 min.
Data set [28] in a line: Drug metabolism in human liver microsomes assessed as formation of desmethyl-zicronapine at 10 uM measured after 15 to 180 mins in presence of NADPH regenerating system by LC-MS/MS analysis. Conditions: time 15-180 min. The data set is classed as ADME, Microsome.
For data set [29], the target named is T2, Cytochrome P450 2C19. Description: Drug metabolism assessed as recombinant human liver CYP2C19-mediated formation of d5-desmethyl-zicronapine at 10 uM measured after 15 to 180 mins in presence of zicronapine by LC-MS/MS analysis. It counts as ADME. The following applies: recombinant enzyme, time 15-180 min.
A short description of data set [30]: Drug metabolism in human liver microsomes assessed as formation of d5-desmethyl-zicronapine at 10 uM measured after 15 to 180 mins in presence of NADPH regenerating system by LC-MS/MS analysis. It counts as ADME, Microsome. The following applies: time 15-180 min. (In general: Liver microsomes are vesicles of endoplasmic reticulum, rich in cytochrome P450 enzymes.)

T1 sequence (P08684 whole entry): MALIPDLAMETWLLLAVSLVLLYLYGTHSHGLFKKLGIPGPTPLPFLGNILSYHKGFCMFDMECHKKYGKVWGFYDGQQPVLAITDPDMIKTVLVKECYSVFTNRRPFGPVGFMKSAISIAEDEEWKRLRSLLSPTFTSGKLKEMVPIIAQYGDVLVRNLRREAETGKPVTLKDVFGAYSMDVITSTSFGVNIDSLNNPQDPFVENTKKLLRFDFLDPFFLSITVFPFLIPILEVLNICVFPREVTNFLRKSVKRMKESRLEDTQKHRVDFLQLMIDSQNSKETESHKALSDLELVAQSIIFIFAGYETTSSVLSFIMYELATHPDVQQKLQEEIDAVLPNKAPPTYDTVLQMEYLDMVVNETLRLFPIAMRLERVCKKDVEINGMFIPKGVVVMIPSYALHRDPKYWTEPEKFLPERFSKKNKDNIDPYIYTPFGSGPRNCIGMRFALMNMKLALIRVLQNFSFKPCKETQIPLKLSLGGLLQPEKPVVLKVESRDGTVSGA
T2 sequence (P33261 whole entry): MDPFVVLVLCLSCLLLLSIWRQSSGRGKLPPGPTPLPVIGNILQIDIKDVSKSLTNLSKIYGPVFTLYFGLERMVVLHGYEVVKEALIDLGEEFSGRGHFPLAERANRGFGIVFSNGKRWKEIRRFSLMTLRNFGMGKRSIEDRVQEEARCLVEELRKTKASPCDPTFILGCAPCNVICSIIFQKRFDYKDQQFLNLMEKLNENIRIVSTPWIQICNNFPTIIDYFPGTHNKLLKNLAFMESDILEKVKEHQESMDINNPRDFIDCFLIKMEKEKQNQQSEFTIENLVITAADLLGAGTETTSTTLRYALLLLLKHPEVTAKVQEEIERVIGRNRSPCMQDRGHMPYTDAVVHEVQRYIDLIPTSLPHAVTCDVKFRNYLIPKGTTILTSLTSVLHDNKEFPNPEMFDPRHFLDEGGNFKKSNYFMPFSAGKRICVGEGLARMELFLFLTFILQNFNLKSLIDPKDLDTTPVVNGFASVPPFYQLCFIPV
Chain of Sodium-dependent dopamine transporter (Q01959 whole entry): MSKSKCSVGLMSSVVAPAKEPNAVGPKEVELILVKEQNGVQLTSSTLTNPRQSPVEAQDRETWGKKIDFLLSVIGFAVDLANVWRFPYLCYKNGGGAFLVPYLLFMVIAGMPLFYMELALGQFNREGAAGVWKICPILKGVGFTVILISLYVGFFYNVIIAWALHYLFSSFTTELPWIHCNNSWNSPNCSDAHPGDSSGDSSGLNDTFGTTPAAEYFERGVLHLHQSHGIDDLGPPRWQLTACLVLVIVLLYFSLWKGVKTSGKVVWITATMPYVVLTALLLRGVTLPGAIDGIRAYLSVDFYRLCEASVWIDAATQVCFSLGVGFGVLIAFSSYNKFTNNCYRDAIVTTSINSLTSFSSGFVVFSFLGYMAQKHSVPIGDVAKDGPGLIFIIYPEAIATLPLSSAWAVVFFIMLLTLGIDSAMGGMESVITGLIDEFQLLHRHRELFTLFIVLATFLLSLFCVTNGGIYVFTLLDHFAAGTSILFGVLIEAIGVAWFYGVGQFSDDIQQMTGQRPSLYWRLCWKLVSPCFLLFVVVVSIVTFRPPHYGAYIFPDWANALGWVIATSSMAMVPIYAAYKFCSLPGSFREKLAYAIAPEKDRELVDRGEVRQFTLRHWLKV
Chain of Alpha-2C adrenergic receptor (P18825 whole entry): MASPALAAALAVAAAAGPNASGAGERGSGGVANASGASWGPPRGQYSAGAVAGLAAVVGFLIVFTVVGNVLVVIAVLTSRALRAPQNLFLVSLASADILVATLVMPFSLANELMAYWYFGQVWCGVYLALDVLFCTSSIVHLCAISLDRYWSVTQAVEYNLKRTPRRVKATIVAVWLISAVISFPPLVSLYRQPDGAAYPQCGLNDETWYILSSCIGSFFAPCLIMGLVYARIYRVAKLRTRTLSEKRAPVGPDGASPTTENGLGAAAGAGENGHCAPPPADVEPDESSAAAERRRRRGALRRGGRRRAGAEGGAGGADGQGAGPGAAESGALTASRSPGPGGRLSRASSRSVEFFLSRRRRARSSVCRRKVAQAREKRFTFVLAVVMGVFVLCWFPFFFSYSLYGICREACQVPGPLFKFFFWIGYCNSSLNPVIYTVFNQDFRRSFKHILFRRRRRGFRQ
Chain of D(1B) dopamine receptor (P21918 whole entry): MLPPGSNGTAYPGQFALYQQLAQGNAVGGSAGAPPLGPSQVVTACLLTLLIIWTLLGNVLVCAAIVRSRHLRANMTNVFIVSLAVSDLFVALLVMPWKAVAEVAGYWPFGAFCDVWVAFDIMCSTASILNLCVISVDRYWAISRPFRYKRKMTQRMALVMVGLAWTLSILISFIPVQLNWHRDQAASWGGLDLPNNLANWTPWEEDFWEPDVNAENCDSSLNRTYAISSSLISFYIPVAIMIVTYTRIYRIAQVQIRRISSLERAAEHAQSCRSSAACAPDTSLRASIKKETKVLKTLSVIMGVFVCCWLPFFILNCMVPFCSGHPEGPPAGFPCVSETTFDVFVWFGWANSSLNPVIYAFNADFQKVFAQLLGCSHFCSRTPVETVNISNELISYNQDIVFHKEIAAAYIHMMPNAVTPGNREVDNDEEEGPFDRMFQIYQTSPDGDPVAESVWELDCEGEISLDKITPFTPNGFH
Chain of D(3) dopamine receptor (P35462 whole entry): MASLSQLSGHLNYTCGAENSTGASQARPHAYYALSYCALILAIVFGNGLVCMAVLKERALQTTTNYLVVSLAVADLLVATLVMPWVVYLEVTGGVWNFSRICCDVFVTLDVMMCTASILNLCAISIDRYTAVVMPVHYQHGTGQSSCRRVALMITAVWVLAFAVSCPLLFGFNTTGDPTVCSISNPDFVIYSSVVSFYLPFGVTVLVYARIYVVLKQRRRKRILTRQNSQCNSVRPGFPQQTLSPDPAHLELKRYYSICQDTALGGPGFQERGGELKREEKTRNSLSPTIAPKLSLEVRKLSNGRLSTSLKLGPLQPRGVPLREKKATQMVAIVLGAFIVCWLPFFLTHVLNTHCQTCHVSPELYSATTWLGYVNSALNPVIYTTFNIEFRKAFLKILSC
Chain of Alpha-1B adrenergic receptor (P35368 whole entry): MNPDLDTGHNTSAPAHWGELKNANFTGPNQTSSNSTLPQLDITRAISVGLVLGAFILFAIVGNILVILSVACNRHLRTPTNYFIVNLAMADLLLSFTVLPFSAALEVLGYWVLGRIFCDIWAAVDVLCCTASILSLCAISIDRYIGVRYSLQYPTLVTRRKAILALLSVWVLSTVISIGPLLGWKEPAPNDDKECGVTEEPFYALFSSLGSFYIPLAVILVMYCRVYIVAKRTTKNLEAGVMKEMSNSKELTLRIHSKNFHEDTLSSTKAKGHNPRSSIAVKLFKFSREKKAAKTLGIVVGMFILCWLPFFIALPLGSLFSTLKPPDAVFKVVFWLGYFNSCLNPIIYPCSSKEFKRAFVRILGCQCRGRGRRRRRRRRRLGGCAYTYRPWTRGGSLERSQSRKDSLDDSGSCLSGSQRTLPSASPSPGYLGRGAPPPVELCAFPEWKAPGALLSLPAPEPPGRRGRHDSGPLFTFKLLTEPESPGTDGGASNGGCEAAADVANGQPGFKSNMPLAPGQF
Chain of 5-hydroxytryptamine receptor 2B (P41595 whole entry): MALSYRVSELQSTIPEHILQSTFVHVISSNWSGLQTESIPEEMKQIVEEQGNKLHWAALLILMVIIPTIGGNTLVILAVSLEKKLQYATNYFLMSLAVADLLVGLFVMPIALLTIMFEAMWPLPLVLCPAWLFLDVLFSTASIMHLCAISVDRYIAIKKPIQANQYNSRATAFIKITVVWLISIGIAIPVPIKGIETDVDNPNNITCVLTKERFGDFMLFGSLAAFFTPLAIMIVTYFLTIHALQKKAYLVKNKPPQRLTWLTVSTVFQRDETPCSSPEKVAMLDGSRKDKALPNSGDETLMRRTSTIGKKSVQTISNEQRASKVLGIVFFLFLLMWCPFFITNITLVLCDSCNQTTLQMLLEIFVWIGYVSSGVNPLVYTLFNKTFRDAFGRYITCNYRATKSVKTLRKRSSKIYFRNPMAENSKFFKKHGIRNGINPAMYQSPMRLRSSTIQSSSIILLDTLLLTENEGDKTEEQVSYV
Chain of Histamine H1 receptor (P35367 whole entry): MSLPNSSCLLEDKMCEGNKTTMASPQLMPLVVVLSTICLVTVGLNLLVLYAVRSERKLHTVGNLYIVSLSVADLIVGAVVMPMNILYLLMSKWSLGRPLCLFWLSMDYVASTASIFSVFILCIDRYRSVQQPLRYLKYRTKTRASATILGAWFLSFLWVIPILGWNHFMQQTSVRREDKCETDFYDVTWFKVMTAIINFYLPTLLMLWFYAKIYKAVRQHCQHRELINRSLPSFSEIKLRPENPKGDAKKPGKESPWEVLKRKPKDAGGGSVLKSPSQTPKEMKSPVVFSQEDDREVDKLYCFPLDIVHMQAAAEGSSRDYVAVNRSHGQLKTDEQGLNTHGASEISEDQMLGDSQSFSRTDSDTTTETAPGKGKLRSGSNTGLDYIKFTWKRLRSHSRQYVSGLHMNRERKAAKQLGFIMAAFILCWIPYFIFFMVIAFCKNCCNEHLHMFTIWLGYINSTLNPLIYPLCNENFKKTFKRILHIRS
Chain of Alpha-1A adrenergic receptor (P35348 whole entry): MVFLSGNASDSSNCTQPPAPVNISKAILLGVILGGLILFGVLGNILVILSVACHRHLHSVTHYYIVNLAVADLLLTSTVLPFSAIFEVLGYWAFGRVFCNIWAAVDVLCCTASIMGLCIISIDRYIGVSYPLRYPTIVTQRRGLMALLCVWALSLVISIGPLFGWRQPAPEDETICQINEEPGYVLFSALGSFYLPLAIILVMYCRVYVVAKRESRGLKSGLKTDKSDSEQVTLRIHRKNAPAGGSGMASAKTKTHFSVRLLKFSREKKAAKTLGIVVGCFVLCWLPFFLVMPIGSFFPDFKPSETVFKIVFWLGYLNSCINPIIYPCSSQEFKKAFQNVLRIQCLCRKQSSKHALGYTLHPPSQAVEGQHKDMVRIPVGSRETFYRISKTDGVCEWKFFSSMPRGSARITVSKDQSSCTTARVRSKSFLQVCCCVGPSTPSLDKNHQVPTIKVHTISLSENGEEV

Regarding `CN1CCN([C@@H]2C[C@@H](c3ccccc3)c3ccc(Cl)cc32)CC1(C)C` [ZICRONAPINE], the Drug metabolism result in data set [1], in data set [2], in [3], in data set [4], in data set [5] and in data set [6] was “Metabolite_Detected” each time.
In the case of `[2H]c1c([2H])c([2H])c([C@@H]2C[C@@H](N3CCNC(C)(C)C3)c3cc(Cl)ccc32)c([2H])c1[2H]`, the Ki in data set [7] was 1 nM; in data set [8] it was 59 nM; in data set [9] it was 510 nM; in data set [10], 160 nM; in data set [11], 13 nM; in [12] it was 11 nM. The Ki in data set [13] was found to be 0.84 nM; in data set [14] it was 6.6 nM; in data set [15] it was 1.1 nM; in data set [16], 0.67 nM; in data set [17], 490 nM; in data set [18], 0.39 nM. In addition, the inhibition constant Ki turned out to be 420 nM in [19]; 0.73 nM in data set [20]; 11 nM in [21]; 2500 nM in [22]; 660 nM in data set [23]; 11 nM in [24]. Moreover, the inhibitory constant (Ki) in data set [25] was 11 nM; in data set [26] it was 35 nM.
For `[2H]c1c([2H])c([2H])c([C@@H]2C[C@@H](N3CCN(C)C(C)(C)C3)c3cc(Cl)ccc32)c([2H])c1[2H]`, the Drug metabolism entry in data set [27], in data set [28], in [29] and in data set [30] was “Metabolite_Detected” each time.
Turning to `[2H]c1c([2H])c([2H])c([C@@H]2C[C@@H](N3CCN(C([2H])([2H])[2H])C(C)(C)C3)c3cc(Cl)ccc32)c([2H])c1[2H]`, the inhibitory constant (Ki) in data set [8] was determined as 16 nM; in [9], 4200 nM; in [10] it was 9.7 nM; in [11] it was 3.4 nM; in [14], 4 nM; in data set [15], 1.5 nM. In addition, the Ki came out at 0.37 nM in data set [16]; 47 nM in data set [17]; 0.4 nM in data set [18]; 89 nM in [19]; 6.8 nM in data set [21]; 560 nM in data set [22]. Also, the Ki turned out to be 170 nM in [23], 2.9 nM in data set [24], 3.8 nM in [25] and 9.5 nM in [26]. Also, the Drug metabolism result in data set [27], in data set [28], in [29] and in [30] was “Metabolite_Detected” in each case.
